Test results as given in US20170064953A1, “HERBICIDAL COMPOSITIONS CONTAINING 4-AMINO-3-CHLORO-6-(4-CHLORO-2-FLUORO-3-METHOXYPHENYL) PYRIDINE-2-CARBOXYLIC ACID OR A DERIVATIVE THEREOF, A TRIAZOLOPYRIMIDINE SULFONAMIDE HERBICIDE OR A DERIVATIVE THEREOF, AND GLYPHOSATE OR A DERIVATIVE THEREOF” (Dow AgroSciences LLC, priority 2015, published 2017).
“And” between values parts separate entries of the source, which are not always exact repeats. Equal entries are not always repeated. Structures can show the parent of a compound that is named as a salt.

Columns and labels:
Experiment in all cases: Field trial, postemergence herbicidal activity, foliar applied, visual rating
Format in all cases: in vivo
[1] = tested on: Conyza bonariensis (hairy fleabane, ERIBO); details: 960 g ai/ha
Method: (§1) Treatments consisted of the methyl ester of 4-amino-3-chloro-6-(4-chloro-2-fluoro-3-methoxyphenyl)pyridine-2-carboxylic acid (Cmpd 1) and diclosulam in combination as GF-3220. […] Glyphosate dimethylammonium salt was applied as various commercial formulations containing 480 grams acid equivalent per liter (g ae/L).
(§2) Field trials were conducted under standard field conditions. Plot sizes varied from 3-4 meters (m) wide by 5-10 m long. Treatments were applied with small plot backpack sprayers, using pressurized carbon dioxide (CO2) as propellant. Pressure varied from 30-50 pounds per square inch (PSI), with spray tips typically of a Flat Fan type applying water diluent at 100-150 liters per hectare (L/ha). Boom sizes varied from 3-4 m in width. Weed sizes varied, but all treatments were applied as post-emergence treatments to weeds from 2 leaf to 2 tiller growth stages varying from 2-15 inches in height. No additional adjuvant was mixed with the treatments applied in the field.
(§3) The weed spectrum included, but was not limited to, Commelina benghalensis (hairy wandering Jew, COMBE), Echinochloa crus-galli (barnyardgrass, ECHCG), Euphorbia heterophylla (wild poinsettia, EPHHL), Conyza bonariensis (hairy fleabane, ERIBO), Conyza canadensis (horseweed, ERICA), Conyza sumatrensis (Guernsey fleabane, ERISU) and Ipomoea grandifolia (Corda-de-viola, IAQGR).
(§4) The values reported are percent (%) control visually rated. The predicted percent (%) weed control was determined using Colby's equation.

[2] = tested on: Ipomoea grandifolia (Corda-de-viola, IAQGR); details: 960 g ai/ha
Method: as §1, §2, §3, §4

[3] = tested on: Conyza canadensis (horseweed, ERICA); details: 1200 g ai/ha
Method: as §1, §2, §3, §4

[4] = tested on: Echinochloa crus-galli (barnyardgrass, ECHCG); details: 1200 g ai/ha
Method: as §1, §2, §3, §4

[5] = tested on: Euphorbia heterophylla (wild poinsettia, EPHHL); details: 960 g ai/ha
Method: as §1, §2, §3, §4

[6] = tested on: Conyza sumatrensis (Guernsey fleabane, ERISU); details: 1200 g ai/ha
Method: as §1, §2, §3, §4

[7] = tested on: Commelina benghalensis (hairy wandering Jew, COMBE); details: 35DAA, 960 g ai/ha
Method: as §1, §2, §3, §4

O=C(O)CNCP(=O)(O)O [Glyphosate DMA salt, N-(phosphonomethyl)glycine]
Mean % weed control ([1]; 9DAA): 11.7% and 10.0%
Mean % weed control ([1]; 12DAA): 43.3%
Mean % weed control ([1]; 14DAA): 40.0% and 36.7% and 23.3%
Mean % weed control ([1]; 15DAA): 48.3%
Mean % weed control ([1]; 23DAA): 31.7%
Mean % weed control ([1]; 35DAA): 25.0%
Mean % weed control ([1]; 40DAA): 46.7%
Mean % weed control ([1]; 54DAA): 23.3%
Mean % weed control ([1]; 67DAA): 20.0%
Mean % weed control ([2]; 14DAA): 40.0%
Mean % weed control ([2]; 19DAA): 43.8%
Mean % weed control ([2]; 28DAA): 45.0%
Mean % weed control ([2]; 35DAA): 53.8%
Mean % weed control ([2]; 42DAA): 48.8%
Mean % weed control ([3]; 30DAA): 28.8%
Mean % weed control ([3]; 32DAA): 32.5%
Mean % weed control ([3]; 46DAA): 25.0%
Mean % weed control ([3]; 47DAA): 28.8%
Mean % weed control ([3]; 62DAA): 20.0%
Mean % weed control ([4]; 18DAA): 16.7%
Mean % weed control ([4]; 38DAA): 16.7%
Mean % weed control ([5]; 7DAA): 38.8%
Mean % weed control ([5]; 14DAA): 52.5%
Mean % weed control ([5]; 28DAA): 18.8%
Mean % weed control ([5]; 35DAA): 7.5%
Mean % weed control ([6]; 19DAA): 19.0%
Mean % weed control ([6]; 29DAA): 17.0%
Mean % weed control ([6]; 46DAA): 15.7%
Mean % weed control [7]: 62.0%
